Values joined by “and” are separate entries in the source; they are usually repeats but may differ in a detail not shown here. Equal entries are not always repeated.
What was measured:
[1] = test system: patients with IBC (inflammatory breast cancer); experiment: EGF103009 open-label study of lapatinib monotherapy: clinical response (skin criteria / RECIST) and progression-free survival; type: in vivo, human; design: key to RECIST Response: CR: complete response; PR: partial response; SD: stable disease; settings: for RECIST Response / Skin Response: individual patient, lapatinib 1,500 mg once daily
From the text: Patients: Eligible adults (18 years of age) had histologically confirmed IBC (Inflammatory breast cancer) and a clinical diagnosis of IBC (e.g., presence of diffuse erythema and edema [peau d'orange], with or without an underlying palpable mass, involving the majority of the skin of the breast). Pathologic evidence of dermal lymphatic invasion was not required. […] EGF103009 was approved by the institutional review board from each participating institution, and written informed consent was obtained from all patients.
Tumor biomarkers were analyzed in a blinded manner at a central Clinical Laboratory Improvement Amendments—certified College of American Pathology reference laboratory (Targeted Molecular Diagnostics, Westmont, Ill.) (Spector N. L., et al., J Clin Oncol 23:2502-2512 (2005)). […] The study design consisted of two stages; two responses were required in the first fifteen patients in either cohort before an additional fifteen patients were enrolled in that cohort (Green-Dahlberg design).
Patients underwent regular physical examinations and evaluations of performance status, body weight, CBC, serum chemistry, left ventricular ejection fraction by multiple gated acquisition scan or echocardiogram, and if applicable, digital photography to evaluate changes in chest wall/[…] disease or assessment by imaging studies, computed tomography scan or magnetic resonance imaging.
Efficacy and Safety Evaluation: Clinical response was assessed at 4-week intervals and imaging performed at 8-week intervals until disease progression or withdrawal from study. […] Toxicity was graded according to the National Cancer Institute Common Terminology Criteria (NC1-CTCAE), version 3.0.
Statistical Analysis: The statistical focus of the study was to test the null hypothesis that the overall response rate (ORR) is no more than 15% versus the alternative hypothesis that this rate is at least 40%. Each cohort consisted of two stages, such that if there were fewer than two responses at the end of stage 1 (15 patients), then the cohort would be closed in favor of the null hypothesis. […] Kaplan-Meier estimates of progression-free survival ([…]) were computed separately for cohort A and B. For this exploratory analysis, there were no statistical comparisons made between cohorts.

[2] = EGF103009 study of lapatinib monotherapy: safety / adverse events; type: in vivo, human
[3] = Cohort A (HER-2 overexpressing IBC)
[4] = Cohort B (EGFR expression without HER-2 overexpression)
[5] = N = 45, >20% decrease in LVEF, asymptomatic and/or below lower limit of normal
[6] = N = 45, mostly musculoskeletal pain (76% of cases)
[7] = N = 45, one report of rash was not graded

For `CS(=O)(=O)CCNCc1ccc(-c2ccc3ncnc(Nc4ccc(OCc5cccc(F)c5)c(Cl)c4)c3c2)o1` [lapatinib, Lapatinib ditosylate], the “time by which all responses in the skin occurred (first assessment)” value ([1]; cohort A) was no more than 4 week, the “patients with response to lapatinib among those who received prior trastuzumab therapy” value ([1]; cohort A, 15 patients with prior trastuzumab) was “six” and the “patients who experienced response” value ([1]; cohort A, HER-2+ IBC, n = 30) was 15 of 30. For the same compound, the “patients whose best clinical response was a CR in chest wall/skin or RECIST-measurable lesions” value ([1]; cohort A, n = 30) was 7%, the “patients with a PR in chest wall/skin and/or RECIST-measurable lesions as best response” value ([1]; cohort A, n = 30) was 43% and the patients who responded ([1]; cohort A, tumors coexpressing pHER-2 and pHER-3) was “nine of 10”. The patients who responded ([1]; cohort A, tumors not coexpressing pHER-2 and pHER-3) was “four of 14”, the “median PFS” value ([1]; cohort A, median follow-up 15.3 weeks) was 14 weeks and the “patients with a clinical response (PR in skin/chest disease)” value ([1]; cohort B, n = 15) was “one of 15”. The “median PFS” value ([1]; cohort B, median follow-up 4.1 weeks) was 4 weeks, the “RECIST Response” value [1, 3] was “PR* (4×) and PR (3×) and SD (7×)” and the “Skin Response” value [1, 3] was “PR (more than 50% decrease in extent of skin disease from baseline documented by digital photography)”. For the same compound, the “RECIST Response” value [1, 4] was “SD”, the “Skin Response” value [1, 4] was “PR (more than 50% decrease in extent of skin disease from baseline documented by digital photography)” and the “Anemia, Grade > 3 %” value ([2]; N = 45) was 4%. For the same compound, the “Anemia, Grade > 3 No.” value ([2]; N = 45) was 2, the “Anemia, Total %” value ([2]; N = 45) was 7% and the “Anemia, Total No. of Patients” value ([2]; N = 45) was 3. For the same compound, the “Anorexia, Grade > 3 %” value ([2]; N = 45) was 2%, the “Anorexia, Grade > 3 No.” value ([2]; N = 45) was 1 and the “Anorexia, Total %” value ([2]; N = 45) was 22%. For the same compound, the “Anorexia, Total No. of Patients” value ([2]; N = 45) was 10, the “Constipation, Grade > 3 %” value ([2]; N = 45) was 0% and the “Constipation, Grade > 3 No.” value ([2]; N = 45) was 0. For the same compound, the “Constipation, Total %” value ([2]; N = 45) was 7%, the “Constipation, Total No. of Patients” value ([2]; N = 45) was 3 and the “Decreased LVEF, Grade > 3 %” value ([2]; N = 45) was 0%. For the same compound, the “Decreased LVEF, Grade > 3 No.” value ([2]; N = 45) was 0, the “Diarrhea, Grade > 3 %” value ([2]; N = 45) was 11% and the “Diarrhea, Grade > 3 No.” value ([2]; N = 45) was 5. The “Diarrhea, Total %” value ([2]; N = 45) was 60%, the “Diarrhea, Total No. of Patients” value ([2]; N = 45) was 27 and the “Dyspnea, Grade > 3 %” value ([2]; N = 45) was 11%. For the same compound, the “Dyspnea, Grade > 3 No.” value ([2]; N = 45) was 5, the “Dyspnea, Total %” value ([2]; N = 45) was 20% and the “Dyspnea, Total No. of Patients” value ([2]; N = 45) was 9. The “Edema, Grade > 3 %” value ([2]; N = 45) was 2%, the “Edema, Grade > 3 No.” value ([2]; N = 45) was 1 and the “Edema, Total %” value ([2]; N = 45) was 13%. For the same compound, the “Edema, Total No. of Patients” value ([2]; N = 45) was 6, the “Elevated ALT/AST, Grade > 3 %” value ([2]; N = 45) was 4% and the “Elevated ALT/AST, Grade > 3 No.” value ([2]; N = 45) was 2. The “Elevated ALT/AST, Total %” value ([2]; N = 45) was 7%, the “Elevated ALT/AST, Total No. of Patients” value ([2]; N = 45) was 3 and the “Elevated alkaline phosphatase, Grade > 3 %” value ([2]; N = 45) was 0%. For the same compound, the “Elevated alkaline phosphatase, Grade > 3 No.” value ([2]; N = 45) was 0, the “Elevated alkaline phosphatase, Total %” value ([2]; N = 45) was 9% and the “Elevated alkaline phosphatase, Total No. of Patients” value ([2]; N = 45) was 4. For the same compound, the “Fatigue, Grade > 3 %” value ([2]; N = 45) was 0%, the “Fatigue, Grade > 3 No.” value ([2]; N = 45) was 0 and the “Fatigue, Total %” value ([2]; N = 45) was 24%. For the same compound, the “Fatigue, Total No. of Patients” value ([2]; N = 45) was 11, the “Hyperbilirubinemia, Grade > 3 %” value ([2]; N = 45) was 2% and the “Hyperbilirubinemia, Grade > 3 No.” value ([2]; N = 45) was 1. The “Hyperbilirubinemia, Total %” value ([2]; N = 45) was 9%, the “Hyperbilirubinemia, Total No. of Patients” value ([2]; N = 45) was 4 and the “Infection, Grade > 3 %” value ([2]; N = 45) was 4%. The “Infection, Grade > 3 No.” value ([2]; N = 45) was 2, the “Infection, Total %” value ([2]; N = 45) was 13% and the “Infection, Total No. of Patients” value ([2]; N = 45) was 6. The “Nausea, Grade > 3 %” value ([2]; N = 45) was 0%, the “Nausea, Grade > 3 No.” value ([2]; N = 45) was 0 and the “Nausea, Total %” value ([2]; N = 45) was 24%. The “Nausea, Total No. of Patients” value ([2]; N = 45) was 11, the “Pain, Grade > 3 %” value ([2]; N = 45) was 16% and the “Pain, Grade > 3 No.” value ([2]; N = 45) was 7. For the same compound, the “Pleural effusion, Grade > 3 %” value ([2]; N = 45) was 9%, the “Pleural effusion, Grade > 3 No.” value ([2]; N = 45) was 4 and the “Pleural effusion, Total %” value ([2]; N = 45) was 11%. For the same compound, the “Pleural effusion, Total No. of Patients” value ([2]; N = 45) was 5, the “Pruritus, Grade > 3 %” value ([2]; N = 45) was 0% and the “Pruritus, Grade > 3 No.” value ([2]; N = 45) was 0. For the same compound, the “Pruritus, Total %” value ([2]; N = 45) was 11%, the “Pruritus, Total No. of Patients” value ([2]; N = 45) was 5 and the “Rash, Grade > 3 %” value ([2]; N = 45) was 0%. For the same compound, the “Rash, Grade > 3 No.” value ([2]; N = 45) was 0, the “Vomiting, Grade > 3 %” value ([2]; N = 45) was 0% and the “Vomiting, Grade > 3 No.” value ([2]; N = 45) was 0. For the same compound, the “Vomiting, Total %” value ([2]; N = 45) was 20%, the “Vomiting, Total No. of Patients” value ([2]; N = 45) was 9 and the “grade ½ diarrhea” value ([2]; N = 45) was 49%. The “grade ½ musculoskeletal pain” value ([2]; N = 45) was 42%, the “grade ½ skin rash” value ([2]; N = 45) was 36% and the “Decreased LVEF, Total %” value [2, 5] was 7%. The “Decreased LVEF, Total No. of Patients” value [2, 5] was 3, the “Pain, Total %” value [2, 6] was 58% and the “Pain, Total No. of Patients” value [2, 6] was 26. The “Rash, Total %” value [2, 7] was 36%, the “Rash, Total No. of Patients” value [2, 7] was 16 and the “tolerability of lapatinib monotherapy” value ([2]; both cohorts) was “generally well tolerated”.
